Results on 13 molecules are retold here after ChEMBL document CHEMBL3425431, “Synthesis and evaluation of constrained phosphoramidate inhibitors of prostate-specific membrane antigen” (Bioorg Med Chem Lett, 2015).

Active and inactive are the calls of the source.

Series [1] is described as follows: Half life in pH 4.5 buffer at 50 degC by [31P] NMR spectrometry. The series is classed as physicochemical.
Series [2] in a line: Half life in pH 4.5 buffer at 70 degC by [31P] NMR spectrometry. Type of series: physicochemical.
Series [3] addresses T1, Glutamate carboxypeptidase 2 (Homo sapiens, UniProt Q04609). The experiment in a line: Inhibition of PSMA (unknown origin) incubated for 15 mins using PABGgG substrate by HPLC method.
Target sequence in this assay (Q04609 whole entry): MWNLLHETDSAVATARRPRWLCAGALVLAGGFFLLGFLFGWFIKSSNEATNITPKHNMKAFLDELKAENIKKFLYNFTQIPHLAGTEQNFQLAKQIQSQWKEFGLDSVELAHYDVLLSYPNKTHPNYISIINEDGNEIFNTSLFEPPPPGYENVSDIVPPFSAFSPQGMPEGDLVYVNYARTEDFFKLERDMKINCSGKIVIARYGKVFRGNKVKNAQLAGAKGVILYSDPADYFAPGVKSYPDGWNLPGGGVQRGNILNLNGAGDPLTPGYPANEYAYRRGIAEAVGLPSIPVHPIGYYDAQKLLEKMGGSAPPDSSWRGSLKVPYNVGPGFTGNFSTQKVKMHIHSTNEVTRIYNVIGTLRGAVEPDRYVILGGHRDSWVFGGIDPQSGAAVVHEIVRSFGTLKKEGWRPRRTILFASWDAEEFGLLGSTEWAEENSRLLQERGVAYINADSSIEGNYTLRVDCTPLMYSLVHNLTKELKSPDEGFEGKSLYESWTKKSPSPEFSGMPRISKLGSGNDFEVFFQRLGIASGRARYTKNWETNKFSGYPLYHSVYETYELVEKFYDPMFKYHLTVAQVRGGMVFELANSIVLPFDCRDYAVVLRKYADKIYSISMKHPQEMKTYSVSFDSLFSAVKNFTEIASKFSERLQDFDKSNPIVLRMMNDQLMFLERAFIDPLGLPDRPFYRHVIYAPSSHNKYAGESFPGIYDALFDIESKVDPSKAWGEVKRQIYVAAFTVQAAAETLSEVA
For series [4], the target named is T1, Glutamate carboxypeptidase 2. The following applies: 0.1 uM.
Target sequence in this assay (Q04609 whole entry, looked up): as the sequence (Q04609 whole entry) above
Description: Slow reversible inhibition of PSMA (unknown origin) at 0.1 uM pre-incubated for 10 mins before PABGgG substrate addition by HPLC method
The nature of series [5]: Drug uptake in tumor of human CWR22Rv1 cells xenografted athymic NCr-nu/nu mouse at 200 uCi, iv after 2 hrs by microPET/CT imaging method. The series is classed as ADME, organism-based, CWR22R. The settings on record: in vivo.
In series [6] the test system is Kidney. The experiment in a line: Drug uptake in kidney of human CWR22Rv1 cells xenografted athymic NCr-nu/nu mouse at 200 uCi, iv after 2 hrs by microPET/CT imaging method. The settings on record: in vivo. Type of series: ADME, organism-based.
Series [7] has as its system Mus musculus. Nature of the series: Drug uptake in other organs of human CWR22Rv1 cells xenografted athymic NCr-nu/nu mouse at 200 uCi, iv after 2 hrs by microPET/CT imaging method. The series is classed as ADME, organism-based. The settings on record: in vivo.

By half-life is commonly meant the time needed for the level to fall by half in the phase considered. What is called IC50 is the concentration at which inhibition is half-maximal. Low values mean greater potency, high ones weaker potency. For `O=C(O)CC[C@H](NP(=O)(O)OCCC[C@H](NC(=O)CC[C@H](NC(=O)CCCCCNC(=O)c1ccc(F)cc1)C(=O)O)C(=O)O)C(=O)O` [CTT-1057], the half-life in series [1] was 75 min; in series [2], 12 min. Moreover, the IC50 in series [3] is 0.4 nM.
In series [3], `NCCCCCC(=O)N[C@@H](CCC(=O)N[C@@H](CCCOP(=O)(O)N[C@@H](CCC(=O)O)C(=O)O)C(=O)O)C(=O)O` gave an IC50 of 19 nM.
As to `N[C@@H](CCC(=O)N1C[C@@H](OP(=O)(O)N[C@@H](CCC(=O)O)C(=O)O)C[C@@H]1C(=O)O)C(=O)O`, the IC50 in series [3] is 357 nM. For the same molecule, the inhibition entry in series [4] is “Active”.
In turn, `O=C(O)CC[C@H](NP(=O)(O)O[C@H]1C[C@H](C(=O)O)N(C(=O)CC[C@H](NC(=O)c2ccc(F)cc2)C(=O)O)C1)C(=O)O` yielded a half-inhibitory concentration (IC50) in series [3] of 3 nM. Also, in series [4], the inhibition result is “Active”.
In the same order, the values of `NCCCCCC(=O)N[C@@H](CCC(=O)N1C[C@H](OP(=O)(O)N[C@@H](CCC(=O)O)C(=O)O)C[C@H]1C(=O)O)C(=O)O` are 79 nM and “Active”.
As for `O=C(O)CC[C@H](NP(=O)(O)O[C@@H]1C[C@@H](C(=O)O)N(C(=O)CC[C@H](NC(=O)CCCCCNC(=O)c2ccc(F)cc2)C(=O)O)C1)C(=O)O`, the half-life was found to be 105 min in series [1] and 32 min in series [2]. In series [3], inhibition was half-maximal at 1.3 nM (IC50). Moreover, in series [4], the inhibition entry is “Active”.
As to `O=C(O)CC[C@H](NP(=O)(O)O[C@@H]1C[C@@H](C(=O)O)N(C(=O)CC[C@H](NC(=O)CCCCCNC(=O)c2ccc(F)cc2)C(=O)O)C1)C(=O)O.O=C(O)CC[C@H](NP(=O)(O)O[C@@H]1C[C@@H](C(=O)O)N(C(=O)CC[C@H](NC(=O)CCCCCNC(=O)c2ccc([18F])cc2)C(=O)O)C1)C(=O)O`, the Drug uptake result in series [5], in series [6] and in series [7] was “Active” in each case.
Molecule `O=C(O)CC[C@H](NP(=O)(O)OCCC[C@H](NC(=O)CC[C@H](NC(=O)c1ccc(F)cc1)C(=O)O)C(=O)O)C(=O)O` gave an IC50 in series [3] of 1.3 nM.
In the case of `O=C(O)CC[C@H](NP(=O)(O)O[C@@H]1C[C@@H](C(=O)O)N(C(=O)CC[C@H](NC(=O)c2ccc(F)cc2)C(=O)O)C1)C(=O)O`, the IC50 in series [3] was 2.6 nM. In addition, the inhibition entry in series [4] was “Active”.
The molecule `N[C@@H](CCC(=O)N[C@@H](CCCOP(=O)(O)N[C@@H](CCC(=O)O)C(=O)O)C(=O)O)C(=O)O` yielded an IC50 in series [3] of 27 nM.
For the molecule `NCCCCCC(=O)N[C@@H](CCC(=O)N1C[C@@H](OP(=O)(O)N[C@@H](CCC(=O)O)C(=O)O)C[C@@H]1C(=O)O)C(=O)O`, the half-inhibitory concentration (IC50) in series [3] was 112 nM. In series [4], the inhibition entry is “Active”.
For the molecule `N[C@@H](CCC(=O)N1C[C@H](OP(=O)(O)N[C@@H](CCC(=O)O)C(=O)O)C[C@H]1C(=O)O)C(=O)O`, the IC50 in series [3] was 60 nM. In series [4], the inhibition result was “Active”.
In turn, `O=C(O)CC[C@H](NP(=O)(O)O[C@H]1C[C@H](C(=O)O)N(C(=O)CC[C@H](NC(=O)CCCCCNC(=O)c2ccc(F)cc2)C(=O)O)C1)C(=O)O` came in with an IC50 in series [3] of 11 nM. For the same molecule, the inhibition entry in series [4] was “Active”.
